Experimental data from patent US6790824B1, “Cytokines having neurotrophic activity” (Biopharm Gesellschaft zur biotechnologischen Entwicklung …, priority 1997, dated 2004).

Assays:
Format in all cases: cell-based
[1] = tested on: chick ciliary ganglionic (CG) neurons; assay: Survival of embryonic chick ciliary ganglionic (CG) neurons, 24 h, counting of surviving neurons; details: for relative potency of TGF-β isoforms in the synergism with GDNF: not shown; for CG neuron survival with further addition of TGF-β: TGF-β 2.5 ng/ml, CNTF non-saturating, OSM, LIF, IL-6 at 10 ng/ml; for support of CG neuron survival by the single cytokine: at 10 ng/ml, without TGF-β
Description: (§1) Embryonic chick ciliary (CG), dorsal root (DRG), and sympathetic (SG) ganglia at embryonic day(s) (E) 8, 10, and 12, were dissected, freed from nerve roots and connective tissue and collected in CME. Ganglia were incubated in trypsin (ICN), washed and dissociated by trituration using fire-polished Pasteur pipettes. Cultures were set up in 96-well microtiter plates (Costar, A/2), precoated with poly-L-ornithine and laminin at a density of 1,200-1,500 cells/well in DMEM supplemented with N1 additives, 0.25% BSA, and 0.1% PSN (DME/N1) and incubated at 37° C. in a 5% CO2 incubator.
(§2) At appropriate times (CG: 24 h, DRG: 48 h, SG: 72 h) cultures were fixed by addition of 2.5% glutardialdehyde in phosphate buffered saline (PBS). Numbers of surviving neurons were determined by direct counting of 30% of the surface area using phase contrast microscopy.
Phosphatidylinositol-specific phospholipase C (PIPLC) is an enzyme that specifically cleaves glycosyl-phosphatidylinositol (GPI) linkages. Embryonic chick ciliary ganglionic neurons (E8) were isolated and seeded as described before. Neurons were incubated for 1 h at 37° C. with 1) 100 mU PIPLC or II) 100 mU PIPLC+2 ng/ml TGFβ or III) without enzyme and then growth factors were added. The number of surviving neurons was determined 24 h later.

[2] = tested on: chick sympathetic ganglionic (SG) neurons; assay: Survival of embryonic chick sympathetic ganglionic (SG) neurons, 72 h, counting of surviving neurons; details: E8, serum-free, factor added by itself
Description: as §1, §2

[3] = tested on: embryonic chicken dorsal root ganglia (DRG) neurons; assay: Survival of dissociated embryonic chick dorsal root ganglia (DRG) neurons, 48 h, counting of surviving neurons; details: for effect on DRG neuron survival when added together with GDF-5: factor at saturating concentration plus GDF-5 20 ng/ml, E8, 48 h
Description: Dissociated cultures of embryonic chicken dorsal root ganglia (DRG) were generated as described in details by Krieglstein and Unsicker (Neurochem. Res., 21(7) (1996) 843-850). Briefly, DRGs from white Leghorn chick embryos (day 8) were dissected in Ca^2+-Mg^2+ free Hanks' balanced salt solution. After incubation in 0.08% trypsin for 15 min ganglia were dissociated by trituration. Cells were seeded in polyomithin-laminin coated 96-well microtiter plates (A/2 Costar) at a density of 1,200 cells/well. Growth factors were applied at the time of plating in a final volume of […] Dulbecco's Modified Eagle's Medium supplemented with 0.25% bovine serum albumin, N1 additives and 100 U/ml penicillin. As a positive control, nerve growth factor (NGF) was used at the saturating concentration of 5 ng/ml. After 48 h of incubation at 37° C. in a humidified atmosphere containing 5% CO2, cultures were fixed with 2.5% glutaraldehyde. Neuronal cells were identified by their phase-bright and neurite-bearing morphologies and counted within 30% of the total surface area using phase contrast microscopy. In the first set of experiments we tested the survival promoting effect of several growth factors of the bone morphogenetic protein family.
as §1, §2
Dissociated cultures of embryonic chicken dorsal root ganglia (DRGs) were generated as described in details by Krieglstein and Unsicker (Dev. Brain. Rees. 93 (1996) 10-17). Briefly, DRGs were dissected in Ca^2+-Mg^2+ free Hank's balanced salt solution (CMF). After incubation in 0.08% trypsin (BioWhittaker) for 15 min, ganglia were dissociated by gentle trituration using fire-polished Pasteur pipettes. Cells in suspension (neuron/non-neuron ratio 1:2) were seeded in polyomithin-laminin coated 96-well microtiter plates (A/2 Costar) at a density of 1,200 cells/well. Growth factors were applied at the time of plating in a final volume of 50 μl Dulbecco's Modified Eagle's Medium supplemented with 0.25% bovine serum albumin, N1 additives (Bottenstein et al., Exp. Cell Res. 125 (1980) 183-190) and 100 U/ml penicillin. As a positive control, nerve growth factor (NGF) was used at the saturating concentration of 10 ng/ml. After 48 h of incubation at 37° C. in a humidified atmosphere containing 5% CO2, cultures were fixed with 2.5% glutaraldehyde in phosphate buffered saline (PBS). Neuronal cells were identified by their phase-bright and neurite-bearing morphologies and counted within 30% of the total surface area using phase contrast microscopy. All experiments were performed in at least triplicate in two independent experiments. Data are presented as mean±SEM. Statistical comparisons were made with student's double t-test, ANOVA and MicrocalOrigin software. Differences were considered statistically significant at *P<0.05, **P<0.01, **P<0.001.

[4] = tested on: dopaminergic neurons in the ventral midbrain (mesencephalic cultures E14/DIV8); assay: Survival of TH-immunoreactive neurons in mesencephalic cultures (E14/DIV8) treated with FGF-2; details: FGF-2 10 ng/ml, 8 days in culture
Description: FIG. 12 depicts the ffect of neutralizing endogenous TGF-β in mesencephalic neuron cul-tures. Numbers of surviving TH-immunoreactive neurons of mesencephalic cultures (E14/DIV8) after 8 days in culture treated with FGF-2 (10 ng/ml), medium only (control), in presence or absence of neutralizing antibodies to TGF-β1/-β2/-β3 (10 μg/ml). Data are given as mean±SEM (n=3), P-values are ***P<0.001 for increased survival as compared with control cultures and +P<0.05 or +++P<0.001 for decreased survival following antibody treatment.
Fibroblast growth factor (FGF)-2 is known to act as a neurotrophic factor for dopaminergic neurons in the ventral midbrain. […] As TGF-β is known to be a product of astroglial cells, it was tested whether TGF-β-neutralizing antibodies can abolish the neurotrophic effect of FGF-2 on cultured neurons derived from the embryonic midbrain floor.

[5] = tested on: rat embryonic mesencephalic dopaminergic neurons (E14); assay: Survival of rat embryonic mesencephalic dopaminergic neurons, count of tyrosine hydroxylase (TH) immunoreactive neurons after 8 days; details: GDNF 10 ng/ml, TGF-β3 2 ng/ml, 8 days in culture
Description: FIG. 8 depicts the survival promoting effect of GDNF on rat embryonic mesencephalic dopaminergic neurons (E14) is dependent on the presence of TGF-β. Dissociated cultures were treated with GDNF (10 ng/ml), with GDNF in the presence of anti-TGF-β1, -β2, -β3 (10 μg/ml), with TGF-β3 (2 ng/ml) or without any growth factor added (control) for 8 days in culture. Numbers of dopaminergic neurons were determined by counting the numbers of tyrosine hydroxylase (TH) immunoreactive neurons.

[6] = PIPLC 0.1 U/ml prior to plating

In the case of “Phosphatidylinositol-specific phospholipase C [PIPLC, reference compound]”, the “effect of PIPLC pretreatment on the survival promoting effect of CNTF” value [1, 6] is reported as “effectively reduced the survival promoting effect of CNTF”, the “effect of PIPLC pretreatment on the survival promoting effect of FGF-2” value [1, 6] is reported as “without affecting the survival promoting effect of FGF-2” and the “effect of PIPLC pretreatment on the survival promoting effect of GDNF with TGF-β” value [1, 6] is reported as “significantly reduced the survival promoting effect of GDNF in its combination with TGF-β”. For the same substance, the “effect of PIPLC pretreatment in the presence of TGF-β on the survival promoting effect of GDNF” value ([1]; PIPLC pretreatment with 2 ng/ml TGF-β1) was “the survival promoting effect of GDNF was maintained”.

In the case of TGF-β1: isoform of TGF-β, the “relative potency of TGF-β isoforms in the synergism with GDNF” value (from here on “relative potency of TGF-β isoforms”) [1] is reported as “equipotent”, the “SG neuron survival, single factor in serum-free medium” value [2] is reported as “virtually no survival promoting effect” and the “DRG neuron survival, single factor in serum-free medium” value ([3]; E8, serum-free, factor added by itself) is reported as “virtually no survival promoting effect”. For the same substance, the “effect on DRG neuron survival when added together with GDF-5” value (“effect on DRG neuron survival” for short) [3] was “synergistic or additive effects”.

TGF-β2: isoform of TGF-β was tested, and the “relative potency of TGF-β isoforms” value [1] was “equipotent”.

For TGF-β3: isoform of TGF-β, the “relative potency of TGF-β isoforms” value [1] was “equipotent” and the “effect on DRG neuron survival” value [3] was “synergistic or additive effects”.

In the case of epidermal growth factor [EGF], the “effect on DRG neuron survival” value [3] is reported as “synergistic or additive effects”.

In the case of fibroblast growth factor-2 [FGF-2], the “effect on DRG neuron survival” value [3] is reported as “synergistic or additive effects” and the “increase in survival of the cells compared to the negative control (medium alone)” value [4] is reported as 1.7 fold.

With interleukin-6 [IL-6] the “CG neuron survival with further addition of TGF-β” value [1] was “did not increase the effects of these cytokines beyond background levels” and the “support of CG neuron survival by the single cytokine” value [1] was “did not support CG neurons”.

leukemia inhibiting factor [LIF] was tested, and the “CG neuron survival with further addition of TGF-β” value [1] was “did not increase the effects of these cytokines beyond background levels” and the “support of CG neuron survival by the single cytokine” value [1] was “did not support CG neurons”.

transforming growth factor beta [TGF-β] was tested, and the “survival of dopaminergic neurons relative to untreated control cultures” value [5] was 200%, the “EC50 of the synergistic survival effect” value ([1]; factor titrated in combination with 2 ng/ml of the other factor (GDNF/TGF-β), serum-free) was 0.06 ng/mL and the “CG neuron survival, single factor in fully-defined medium” value ([1]; serum-free, each at the saturating amount of 2 ng/ml) was “only marginal survival promoting effects”.

With transforming growth factor-a [TGF-α] the “effect on DRG neuron survival” value [3] was “synergistic or additive effects”.
